Laboratory results from PMC7946228, “Discovery of novel candidates for anti-liposarcoma therapies by medium-scale high-throughput drug screening” (PLoS ONE, 2021).
Like-named read-outs stand apart in the source and are kept apart here. Numbered stars: 1 amine (or outer) side, 2 acyl side, 3 side chain; on linkers, the order of the positions; unused ones are H or OH. Bridge positions count the residues as written; N and C are the ends. Square brackets hold non-standard residues; d marks the D form. Peptide text beside a SMILES is read from it. I, II: the chains in the order shown. Actinocin(9to1) = Cc1c2oc3c(C)ccc(C(=O)[*:1])c3nc-2c(C(=O)[*:2])c(N)c1=O; NMeV = CN[C@H](C(=O)O)C(C)C; Sar = CNCC(=O)O

Legend:
[1] = system: 13 liposarcoma cell lines; test: High-throughput drug screen, ATP viability 72h; assay type: cell-based, human; settings: five concentrations 1 nM to 10 μM, combined viability (AUC)
Method: 349 compounds from anti-cancer Selleck Chemical library were pre-aliquoted at five concentrations, increasing in 10-fold steps from 1 nM to 10 μM, in 384-well plates using an Echo Liquid Handler. Each plate also contained positive (benzethonium chloride, BzCl) and negative (DMSO only) controls. Additional drugs were added manually to the same plates at the same concentration range. Cells were seeded directly into the plates containing the drugs. After 72h viability was assessed through levels of ATP, with Cell Titer Glow assay (Promega, Wisconsin, United States) and luminescence quantified using a […]. Data from drug screens were analyzed with R version 3.4.0 (R_Core_Team, 2017) normalized to median positive (BzCl) and median negative (DMSO) controls using formula: (drug-BzCl)/(DMSO–BzCl), with total viability calculated as the area under the curve over all five drug concentrations, adjusted using qualitatively constrained quantile smoothing splines, R package ‘cobs’ version 1.3–3 [22]. The raw values of positive (BzCl) and median negative (DMSO) controls on each assay plate were aggregated and used to calculate z’-factors, as a measure of assay performance and data quality, with a z’-factor > 0.5 representing acceptable data. For two cases where the z’-factor was below 0.5, strictly standardized mean difference (SSMD) was additionally calculated, giving the population value (β) of SSMD -4 and -5, respectively, indicating good quality. Data visualization was done in R using ‘ComplexHeatmaps’ package version 1.20.0 [24]. The same assay was also used when assessing viability of non-tumor cells and tumor explants.
Thirteen liposarcoma cell lines representing dedifferentiated, well-differentiated, pleomorphic and unspecified subtype liposarcomas were grown in 384-well format in the presence one of the 353 compounds, each at five 10-fold increasing concentrations (from 1 nM to 10 μM) for 72h, after which their viability was scored by measuring ATP levels. The viability was normalized to positive and negative controls and was calculated as sum of viabilities obtained with all the five used concentrations. That means if, e.g., the compound was killing cells at all the tested concentrations, the viability value would be 0, and if the compound was not killing cells at any tested concentrations, the value would be […]. If the compound was reducing the viability to 50% at 100 nM, and to 0% at 1 and 10 μM, the total viability would be calculated as 2 (see scheme on the top of Fig 1A). Within the tested concentration range, the majority of the drugs had very little effect on viability regardless of the target or pathway (Figs 1A and S1). The drug screen included 28 chemotherapeutic drugs currently in clinical use in Norway for the treatment of sarcoma.

[2] = system: FU-DDLS-1 liposarcoma cell line; test: CellTiter-Glo viability, GR50, 72h; assay type: cell-based, human; settings: Homo sapiens; FU-DDL S-1, 72h; read-out: Half maximum effective concentration corrected for cell growth (GR50)
Method: (§1) Cell viability was measured using the CellTiter-Glo Luminescent Cell Viability Assay (Promega, Wisconsin, United States). For each experiment the same cell numbers were seeded as for the proliferation experiments. Seven drug concentrations were used, starting from 100μM with 10-fold dilutions and also a vehicle control appropriate for each drug (DMSO or ethanol). After 72h of drug or vehicle control treatment levels of ATP were measured with CellTiter-Glo. The data from six to nine biological replicates, each with three technical replicates were collected. A nonlinear regression model with different four-parameter log-logistic function was used for modelling of the drug dose-response using ‘GRmetrics’ R package version 1.8.1 [26]. The calculated GR50 metric is equivalent to the IC50 metric but takes into account the growth rate of cells. Therefore, it estimates better the effect of the compound on cell viability and allows for comparison between different cell lines with different growth rates.

[3] = system: GOT3 liposarcoma cell line; test: CellTiter-Glo viability, GR50, 72h; assay type: cell-based, human; settings: Homo sapiens; GOT3, 72h; read-out: Half maximum effective concentration corrected for cell growth (GR50)
Method: as §1

[4] = system: LPS141 liposarcoma cell line; test: CellTiter-Glo viability, GR50, 72h; assay type: cell-based, human; settings: Homo sapiens, LPS141; LPS 141, 72h; read-out: Half maximum effective concentration corrected for cell growth (GR50)
Method: as §1

[5] = system: LPS510 liposarcoma cell line; test: CellTiter-Glo viability, GR50, 72h; assay type: cell-based, human; settings: Homo sapiens; LPS 510, 72h; read-out: Half maximum effective concentration corrected for cell growth (GR50)
Method: as §1

[6] = system: LPS853 liposarcoma cell line; test: CellTiter-Glo viability, GR50, 72h; assay type: cell-based, human; settings: Homo sapiens; LPS 853, 72h; read-out: Half maximum effective concentration corrected for cell growth (GR50)
Method: as §1

[7] = system: LS2 liposarcoma cell line; test: CellTiter-Glo viability, GR50, 72h; assay type: cell-based, human; settings: Homo sapiens; LS2, 72h; read-out: Half maximum effective concentration corrected for cell growth (GR50)
Method: as §1

[8] = system: LiSa-2 liposarcoma cell line; test: CellTiter-Glo viability, GR50, 72h; assay type: cell-based, human; settings: Homo sapiens; LiSa-2, 72h; read-out: Half maximum effective concentration corrected for cell growth (GR50)
Method: as §1

[9] = system: NRH-LS1 liposarcoma cell line; test: CellTiter-Glo viability, GR50, 72h; assay type: cell-based, human; settings: Homo sapiens; NRH-LS1, 72h; read-out: Half maximum effective concentration corrected for cell growth (GR50)
Method: as §1

[10] = system: SA-4 liposarcoma cell line; test: CellTiter-Glo viability, GR50, 72h; assay type: cell-based, human; settings: Homo sapiens; SA-4, 72h; read-out: Half maximum effective concentration corrected for cell growth (GR50)
Method: as §1

[11] = system: SW872 liposarcoma cell line; test: CellTiter-Glo viability, GR50, 72h; assay type: cell-based, human; settings: Homo sapiens, SW872; SW 872, 72h; read-out: Half maximum effective concentration corrected for cell growth (GR50)
Method: as §1

[12] = system: T1000 liposarcoma cell line; test: CellTiter-Glo viability, GR50, 72h; assay type: cell-based, human; settings: Homo sapiens; T1000, 72h; read-out: Half maximum effective concentration corrected for cell growth (GR50)
Method: as §1

[13] = system: T449 liposarcoma cell line; test: CellTiter-Glo viability, GR50, 72h; assay type: cell-based, human; settings: Homo sapiens; T449, 72h; read-out: Half maximum effective concentration corrected for cell growth (GR50)
Method: as §1

[14] = system: T778 liposarcoma cell line; test: CellTiter-Glo viability, GR50, 72h; assay type: cell-based, human; settings: Homo sapiens; T778, 72h; read-out: Half maximum effective concentration corrected for cell growth (GR50)
Method: as §1

liposarcoma cell lines [15] = test: TUNEL apoptosis assay by flow cytometry; assay type: cell-based, human; settings: growth arresting concentration, 17-72h, majority of cell lines
Method: (§2) Cells were treated with drugs at the concentrations corresponding to previously established growth arresting concentrations and collected between 17 and 72h. Time of collection was individual for every drug/cell line combination; cells were collected after the beginning of complete growth inhibition (based on the growth curves data) but only when first signs of morphological change or cell death were visible (estimated microscopically approximately every 2h). After methanol fixation, cells were barcoded with different combinations of Pacific Blue/Pacific Orange dyes (Thermo Fisher Scientific) for different drug treatments. After mixing, cells were incubated in the TUNEL reaction mix for 1h at 37°C, according to the manufacturer’s instructions (Roche, Germany), stained with Streptavidin-Cy5 conjugated Ab and digested with RNAse. Cells were counter-stained with propidium iodide and analyzed using LSR II Flow Cytometer (BD Biosciences, NJ, USA. The data were processed with FlowJo Version 7.6.5 (Tree Star, Ashland, USA). The gating strategy is presented in Fig 3A. Cy-5 positive cells (as compared to control sample) were calculated as apoptotic. Cell cycles of non-apoptotic cells were analyzed using the built in FlowJo Cell Cycle Analysis module. Three independent biological replicates were done for each cell line/drug combination with exception of FU-DDLS-1 and T1000 –for which we only had two replicates available.

liposarcoma cell lines [16] = test: Cell cycle analysis of non-apoptotic cells (propidium iodide); assay type: cell-based, human; settings: growth arresting concentration, non-apoptotic fraction
Method: as §2

liposarcoma cell lines [17] = test: Drug withdrawal, reversibility of growth arrest; assay type: cell-based, human
Method: The cellular proliferation rate was measured using the IncuCyte ZOOM live-cell imaging system (Essen Bioscience, Birmingham, UK) with the corresponding software application (version 2013BRev1). First the growth rate for each cell line was established to estimate the seeding numbers of cells corresponding to 15–30% of confluence at the start of the experiment and maximum 70% after 72h. The drug treatment was initiated approximately 18h after seeding. The proliferation rate was measured as cell confluence over time through the acquisition of photographs under phase contrast every third hour for the entire duration of the drug treatment. During the drug treatment, media were not changed, and cells were not split. The growth reducing drug concentration was defined as lowest drug concentration leading to significant decrease of cellular growth between 40 and 72h after start of treatment. To determine that concentration, plots were generated using IncuCyte software and differences in growth between 40 and 72h were calculated using least-square means with the ‘emmeans’ R package version 1.4.3 [25]. Growth arresting concentrations were defined as minimal drug concentration under which cell confluence between 96 and 120h increases by less than 3%. Though growth arrest occurred much earlier, these time points ensured that the growth arrest is a stable phenomenon. These growth arresting concentrations were used for drug withdrawal, apoptosis and cell cycle experiments. All the data were verified with the plots. The presented values correspond to median values from two (T449, all compounds) to five (all cell lines, triptolide) biological replicates.
An important prerequisite for clinical implementation of these compounds as treatment for liposarcoma is irreversibility of the induced growth inhibition. We thus assessed if the drugs were only transiently cytostatic, which is especially important in case of the compounds that seem to work mainly via cell cycle arrest (APO866, GSK2126458). Cells were treated with the compounds at growth arresting concentrations for 120h after which the compounds were removed and cell numbers were monitored for another 72h. […] To irreversibly arrest cell proliferation GSK2126458 had to be used at 10x higher concentrations (100x for GOT3) (S5 Fig). Those concentrations are above physiological ranges (see Table 2), and these effects should be accounted for assessing use of GSK2126458 in clinic.

[18] = cited from earlier work

Structure (SMILES): CC(C)C[C@H](NC(=O)[C@H](Cc1ccccc1)NC(=O)c1cnccn1)B(O)O [Bortezomib]
- effect on viability in the drug screen [1]: top candidates from the screen

Structure (SMILES): COc1ncc(-c2ccc3nccc(-c4ccnnc4)c3c2)cc1NS(=O)(=O)c1ccc(F)cc1F [GSK2126458]
- IC50 [2]: 0.096 µM
- IC50 [3]: 0.028 µM
- IC50 [4]: 0.182 µM
- IC50 [5]: 0.082 µM
- IC50 [6]: 0.05 µM
- IC50 [7]: 0.11 µM
- IC50 [8]: 0.054 µM
- IC50 [9]: 0.469 µM
- IC50 [10]: 0.086 µM
- IC50 [11]: 0.401 µM
- IC50 [12]: 0.014 µM
- IC50 [13]: 0.01 µM
- IC50 [14]: 0.052 µM
- apoptosis (increase in % of apoptotic cells) (liposarcoma cell lines [15]): ≤ 5%
- cell cycle phase in which cells are blocked (liposarcoma cell lines [16]): G1 phase
- reversibility of growth inhibition after drug removal (liposarcoma cell lines [17]; 120h treatment at growth arresting concentration, then 72h without drug, except T778 with MLN9708): All of the tested cell lines regained their growth rate
- time to regain growth rate after withdrawal (liposarcoma cell lines [17]; all tested cell lines, 120h treatment at growth arresting concentration): ≤ 3 h
- concentration needed for irreversible growth arrest relative to growth arresting concentration (liposarcoma cell lines [17]; cell lines that resumed growth, 100x for GOT3 with GSK2126458): 10 x higher
- Cmax ([18]; phase I trial of multiple tumor types): ~0.1 µM
- Cmax ([18]; read-out: clinically relevant concentration (Cmax or Css), values show Cmax or Css (italics), patients): 0.1 µM

Structure (SMILES): Cc1c2oc3c(C)ccc(C(=O)N[C@@H]4C(=O)N[C@H](C(C)C)C(=O)N5CCC[C@H]5C(=O)N(C)CC(=O)N(C)[C@@H](C(C)C)C(=O)O[C@@H]4C)c3nc-2c(C(=O)N[C@@H]2C(=O)N[C@H](C(C)C)C(=O)N3CCC[C@H]3C(=O)N(C)CC(=O)N(C)[C@@H](C(C)C)C(=O)O[C@@H]2C)c(N)c1=O [actinomycin D] (I: T[dV]P[Sar][NMeV] / II: T[dV]P[Sar][NMeV]; ester I:1-I:C, II:1-II:C; linker I:N-II:N via Actinocin(9to1))
- effect on viability in the drug screen [1]: significant impact on viability

Structure (SMILES): CC(=O)O[C@@]12CO[C@@H]1C[C@H](O)[C@@]1(C)C(=O)[C@H](O)C3=C(C)[C@@H](OC(=O)[C@H](O)[C@@H](NC(=O)OC(C)(C)C)c4ccccc4)C[C@@](O)([C@@H](OC(=O)c4ccccc4)[C@H]21)C3(C)C [docetaxel]
- effect on viability in the drug screen [1]: significant impact on viability

Structure (SMILES): Nc1ccn([C@@H]2O[C@H](CO)[C@@H](O)C2(F)F)c(=O)n1 [gemcitabine]
- effect on viability in the drug screen [1]: significant impact on viability

Structure (SMILES): Cc1ccc(C(=O)N(CCCN)[C@@H](c2nc3cc(Cl)ccc3c(=O)n2Cc2ccccc2)C(C)C)cc1 [ispinesib]
- effect on viability in the drug screen [1]: top candidates from the screen

Structure (SMILES): CC(=O)O[C@H]1C(=O)[C@@]2(C)[C@H]([C@H](OC(=O)c3ccccc3)[C@]3(O)C[C@H](OC(=O)[C@H](O)[C@@H](NC(=O)c4ccccc4)c4ccccc4)C(C)=C1C3(C)C)[C@]1(OC(C)=O)CO[C@@H]1C[C@@H]2O [paclitaxel]
- effect on viability in the drug screen [1]: significant impact on viability

Structure (SMILES): CC[C@]1(O)C[C@H]2CN(CCc3c([nH]c4ccccc34)[C@@](C(=O)OC)(c3cc4c(cc3OC)N(C=O)[C@H]3[C@@](O)(C(=O)OC)[C@H](OC(C)=O)[C@]5(CC)C=CCN6CC[C@]43[C@@H]65)C2)C1 [vincristine]
- effect on viability in the drug screen [1]: significant impact on viability
